# Experimental data as given in paper PMC9403976, “Elucidating the path to Plasmodium prolyl-tRNA synthetase inhibitors that overcome halofuginone resistance” (Nature Communications, 2022).
# Several values for one entry are separate records, joined by “and”; a condition that tells them apart may be missing. Identical values can stand only once. Like-named read-outs stand apart in the source and are kept apart here.
# Experiments:
# P. falciparum Dd2-2D4 = assay: P. falciparum asexual blood stage (ABS) growth assay, SYBR Green, 72 h, wild-type parasites; assay type: cell-based, Plasmodium falciparum; conditions: Plasmodium falciparum, DD2; SI Fig 16b; values on -log scale; read-out: ABS - Dd2-2D4 (converted)
# [1] = test system: halofuginone-induced P. falciparum (elevated proline homeostasis); assay: P. falciparum ABS growth assay, SYBR Green, 72 h, halofuginone-induced parasites; assay type: cell-based, Plasmodium falciparum
# In short: (§1)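 SYBR Green 1 fluorescence after 72 h quantified growth of erythrocytic-stage Dd2 lines seeded at 1% parasitemia and 1% hematocrit. Compounds were tested in triplicate dose-response format in RPMI with 0.5% Albumax, referenced to 10 μM dihydroartemisinin and untreated wells.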
# [2] = test system: HFGR-I P. falciparum (elevated proline homeostasis and PfcProRS^L482H); assay: P. falciparum ABS growth assay, SYBR Green, 72 h, HFGR-I parasites; assay type: cell-based, Plasmodium falciparum
# In short: as §1
# PfcProRS = biological target: T1, PfcProRS (Plasmodium falciparum, UniProt Q8I5R7); assay type: binding; conditions: single replicates
# T1 construct: made in house; host or cells: E. coli SoluBL-21
# HsProRS = HsProRS (Homo sapiens, UniProt P07814); assay: TR-FRET ligand displacement assay with tracer MAT379 (CoraFluor-1-Halo and anti-His6 antibody formats); assay type: binding; design: made in house; host or cells: E. coli SoluBL-21; conditions: for TR-FRET dose-response, normalized signal (SI Fig 11): individual replicates
# Sequence of HsProRS (P07814 996-1512): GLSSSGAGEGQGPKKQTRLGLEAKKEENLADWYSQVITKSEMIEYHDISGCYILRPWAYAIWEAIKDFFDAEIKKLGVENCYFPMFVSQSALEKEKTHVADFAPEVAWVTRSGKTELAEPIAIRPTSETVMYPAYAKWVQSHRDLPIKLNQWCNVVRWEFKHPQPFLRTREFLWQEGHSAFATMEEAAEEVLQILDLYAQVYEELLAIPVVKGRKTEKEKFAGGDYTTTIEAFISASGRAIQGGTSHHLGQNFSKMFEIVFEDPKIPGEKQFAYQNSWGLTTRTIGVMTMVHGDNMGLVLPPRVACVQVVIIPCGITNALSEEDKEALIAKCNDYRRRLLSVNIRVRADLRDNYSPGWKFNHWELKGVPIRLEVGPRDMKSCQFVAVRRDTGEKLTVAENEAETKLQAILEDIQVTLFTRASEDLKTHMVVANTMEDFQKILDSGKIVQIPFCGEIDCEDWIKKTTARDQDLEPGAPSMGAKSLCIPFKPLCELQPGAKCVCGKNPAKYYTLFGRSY
# T1 sequence (Q8I5R7 249-746): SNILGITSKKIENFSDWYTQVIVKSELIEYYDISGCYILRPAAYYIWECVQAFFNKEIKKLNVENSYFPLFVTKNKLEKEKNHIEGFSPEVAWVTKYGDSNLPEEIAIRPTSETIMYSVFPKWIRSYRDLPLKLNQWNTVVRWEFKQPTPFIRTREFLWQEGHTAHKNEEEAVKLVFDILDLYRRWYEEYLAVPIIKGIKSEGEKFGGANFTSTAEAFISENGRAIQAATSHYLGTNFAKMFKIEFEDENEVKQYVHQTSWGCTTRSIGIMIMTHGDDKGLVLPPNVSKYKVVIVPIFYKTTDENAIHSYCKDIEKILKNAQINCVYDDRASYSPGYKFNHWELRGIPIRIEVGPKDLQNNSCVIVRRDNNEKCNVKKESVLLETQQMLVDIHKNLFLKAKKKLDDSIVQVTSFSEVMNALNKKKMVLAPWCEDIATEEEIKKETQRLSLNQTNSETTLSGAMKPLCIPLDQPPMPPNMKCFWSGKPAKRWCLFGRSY
structure (smiles),measurement,setting,value
O=C(NC1Cc2ccccc2C1)c1nccnc1NC(=O)N1CCC(CO)CC1 [compound 11],EC50,P. falciparum Dd2-2D4,0.711 µM
same,"dose-response value, Replicates 1-3 (SI Fig 2e)",[1]; Log[inhibitor] (M) -5.408,12
same,EC50,"[1]; Plasmodium falciparum, DD2, read-out: Dd2 (EC50 [nM]) halofuginone-induced mean",2470 nM
same,"dose-response value, Replicates 1-3 (SI Fig 2f)",[2]; Log[inhibitor] (M) -5.000,0
same,EC50,"[2]; Plasmodium falciparum, DD2, read-out: Dd2 (EC50 [nM]) HFGR1 mean",1910 nM
same,"dose-response signal (normalized), SI Fig 8",PfcProRS; Log[inhibitor] (M) -5.000,5.60E-02 and 7.55E-02 and 4.27E-02
same,"dose-response signal (normalized), SI Fig 8",PfcProRS; Log[inhibitor] (M) -5.301,7.92E-02 and 2.41E-02 and 4.88E-02
same,"dose-response signal (normalized), SI Fig 8",PfcProRS; Log[inhibitor] (M) -5.601,9.80E-02 and 1.87E-03 and 7.44E-02
same,"dose-response signal (normalized), SI Fig 8",PfcProRS; Log[inhibitor] (M) -5.904,2.50E-01 and 1.37E-01 and 2.03E-01
same,"dose-response signal (normalized), SI Fig 8",PfcProRS; Log[inhibitor] (M) -6.208,3.69E-01 and 3.33E-01 and 3.17E-01
same,"dose-response signal (normalized), SI Fig 8",PfcProRS; Log[inhibitor] (M) -6.509,6.08E-01 and 6.11E-01 and 6.37E-01
same,"dose-response signal (normalized), SI Fig 8",PfcProRS; Log[inhibitor] (M) -6.796,7.29E-01 and 7.94E-01 and 7.90E-01
same,"dose-response signal (normalized), SI Fig 8",PfcProRS; Log[inhibitor] (M) -7.108,8.18E-01 and 8.62E-01 and 9.40E-01
same,"dose-response signal (normalized), SI Fig 8",PfcProRS; Log[inhibitor] (M) -7.409,1.03E+00 and 1.01E+00 and 8.87E-01
same,"dose-response signal (normalized), SI Fig 8",PfcProRS; Log[inhibitor] (M) -7.710,1.08E+00 and 9.42E-01 and 9.86E-01
same,"dose-response signal (normalized), SI Fig 8",PfcProRS; Log[inhibitor] (M) -8.000,1.04E+00 and 9.91E-01 and 1.06E+00
same,"dose-response signal (normalized), SI Fig 8",PfcProRS; Log[inhibitor] (M) -8.301,1.09E+00 and 1.02E+00 and 1.00E+00
same,"dose-response signal (normalized), SI Fig 8",PfcProRS; Log[inhibitor] (M) -8.602,1.07E+00 and 9.31E-01 and 1.05E+00
same,"dose-response signal (normalized), SI Fig 8",PfcProRS; Log[inhibitor] (M) -9.000,8.46E-01 and 1.03E+00 and 9.88E-01
same,"dose-response signal (normalized), SI Fig 8",PfcProRS; Log[inhibitor] (M) -9.301,1.09E+00 and 1.13E+00 and 1.15E+00
same,Kd,"HsProRS; HsProRS (KD [nM]) + 100 μM proline mean, + 100 μM proline",8.42 nM
same,Kd,"HsProRS; HsProRS (KD [nM]) mean, no added proline/ATP (-)",265 nM
same,"normalized TR-FRET ligand displacement signal, dose-response replicates (SI Fig 6)",HsProRS; Log[inhibitor] (M) -5.000,7.29E-02 and 8.36E-02 and 3.81E-02
same,"TR-FRET dose-response, normalized signal (SI Fig 11)",HsProRS; Log[inhibitor] (M) -5.000,-1.28E-03 and -3.43E-02 and 2.65E-03
same,"normalized TR-FRET ligand displacement signal, dose-response replicates (SI Fig 6)",HsProRS; Log[inhibitor] (M) -5.301,1.45E-01 and 1.02E-01 and 9.61E-02
same,"TR-FRET dose-response, normalized signal (SI Fig 11)",HsProRS; Log[inhibitor] (M) -5.301,2.77E-02 and 5.85E-02 and -1.28E-02
same,"normalized TR-FRET ligand displacement signal, dose-response replicates (SI Fig 6)",HsProRS; Log[inhibitor] (M) -5.601,2.34E-01 and 2.43E-01 and 2.83E-01
same,"TR-FRET dose-response, normalized signal (SI Fig 11)",HsProRS; Log[inhibitor] (M) -5.601,8.35E-02 and 4.98E-02 and 9.15E-02
same,"normalized TR-FRET ligand displacement signal, dose-response replicates (SI Fig 6)",HsProRS; Log[inhibitor] (M) -5.904,4.84E-01 and 4.37E-01 and 4.52E-01
same,"TR-FRET dose-response, normalized signal (SI Fig 11)",HsProRS; Log[inhibitor] (M) -5.904,2.07E-01 and 2.25E-01 and 2.22E-01
same,"normalized TR-FRET ligand displacement signal, dose-response replicates (SI Fig 6)",HsProRS; Log[inhibitor] (M) -6.208,6.54E-01 and 5.62E-01 and 6.80E-01
same,"TR-FRET dose-response, normalized signal (SI Fig 11)",HsProRS; Log[inhibitor] (M) -6.208,3.66E-01 and 3.44E-01 and 3.52E-01
same,"normalized TR-FRET ligand displacement signal, dose-response replicates (SI Fig 6)",HsProRS; Log[inhibitor] (M) -6.509,6.98E-01 and 7.35E-01 and 8.42E-01
same,"TR-FRET dose-response, normalized signal (SI Fig 11)",HsProRS; Log[inhibitor] (M) -6.509,5.64E-01 and 5.20E-01 and 5.33E-01
same,"normalized TR-FRET ligand displacement signal, dose-response replicates (SI Fig 6)",HsProRS; Log[inhibitor] (M) -6.796,1.06E+00 (2×) and 1.05E+00
same,"TR-FRET dose-response, normalized signal (SI Fig 11)",HsProRS; Log[inhibitor] (M) -6.796,7.28E-01 and 6.74E-01 and 6.24E-01
same,"normalized TR-FRET ligand displacement signal, dose-response replicates (SI Fig 6)",HsProRS; Log[inhibitor] (M) -7.108,8.92E-01 and 1.10E+00 and 9.75E-01
same,"TR-FRET dose-response, normalized signal (SI Fig 11)",HsProRS; Log[inhibitor] (M) -7.108,7.19E-01 and 7.66E-01 and 7.53E-01
same,"normalized TR-FRET ligand displacement signal, dose-response replicates (SI Fig 6)",HsProRS; Log[inhibitor] (M) -7.409,9.25E-01 and 9.47E-01 and 1.04E+00
same,"TR-FRET dose-response, normalized signal (SI Fig 11)",HsProRS; Log[inhibitor] (M) -7.409,8.67E-01 and 8.81E-01 and 8.44E-01
same,"normalized TR-FRET ligand displacement signal, dose-response replicates (SI Fig 6)",HsProRS; Log[inhibitor] (M) -7.710,9.81E-01 and 9.55E-01 and 9.75E-01
same,"TR-FRET dose-response, normalized signal (SI Fig 11)",HsProRS; Log[inhibitor] (M) -7.710,9.29E-01 and 8.46E-01 and 9.70E-01
same,"normalized TR-FRET ligand displacement signal, dose-response replicates (SI Fig 6)",HsProRS; Log[inhibitor] (M) -8.000,9.65E-01 and 1.05E+00 and 9.80E-01
same,"TR-FRET dose-response, normalized signal (SI Fig 11)",HsProRS; Log[inhibitor] (M) -8.000,9.63E-01 and 9.74E-01 and 9.23E-01
same,"normalized TR-FRET ligand displacement signal, dose-response replicates (SI Fig 6)",HsProRS; Log[inhibitor] (M) -8.301,1.00E+00 and 9.43E-01 and 1.07E+00
same,"TR-FRET dose-response, normalized signal (SI Fig 11)",HsProRS; Log[inhibitor] (M) -8.301,9.20E-01 and 9.31E-01 and 8.90E-01
same,"normalized TR-FRET ligand displacement signal, dose-response replicates (SI Fig 6)",HsProRS; Log[inhibitor] (M) -8.602,1.02E+00 (2×) and 9.43E-01
same,"TR-FRET dose-response, normalized signal (SI Fig 11)",HsProRS; Log[inhibitor] (M) -8.602,8.99E-01 and 8.64E-01 and 8.60E-01
same,"normalized TR-FRET ligand displacement signal, dose-response replicates (SI Fig 6)",HsProRS; Log[inhibitor] (M) -9.000,9.86E-01 and 1.02E+00 and 1.11E+00
same,"TR-FRET dose-response, normalized signal (SI Fig 11)",HsProRS; Log[inhibitor] (M) -9.000,9.04E-01 and 9.68E-01 and 8.68E-01
same,"normalized TR-FRET ligand displacement signal, dose-response replicates (SI Fig 6)",HsProRS; Log[inhibitor] (M) -9.301,1.03E+00 (2×) and 9.04E-01
same,"TR-FRET dose-response, normalized signal (SI Fig 11)",HsProRS; Log[inhibitor] (M) -9.301,8.86E-01 and 9.16E-01 and 9.33E-01
